Measurements as given in BindingDB's records for doi:10.1021/acs.jmedchem.8b00370 (Genentech, 2018).

Target: Mitogen-activated protein kinase kinase kinase 12 (Homo sapiens) (UniProt Q12852)
Test: Inhibition of DLK (unknown origin) using myelin basic protein as substrate preincubated for 15 mins measured after 30 mins in presence of [gamma-32P]ATP by scintillation counting

Sequence of Mitogen-activated protein kinase kinase kinase 12 (Homo sapiens) (Q12852 whole entry, looked up): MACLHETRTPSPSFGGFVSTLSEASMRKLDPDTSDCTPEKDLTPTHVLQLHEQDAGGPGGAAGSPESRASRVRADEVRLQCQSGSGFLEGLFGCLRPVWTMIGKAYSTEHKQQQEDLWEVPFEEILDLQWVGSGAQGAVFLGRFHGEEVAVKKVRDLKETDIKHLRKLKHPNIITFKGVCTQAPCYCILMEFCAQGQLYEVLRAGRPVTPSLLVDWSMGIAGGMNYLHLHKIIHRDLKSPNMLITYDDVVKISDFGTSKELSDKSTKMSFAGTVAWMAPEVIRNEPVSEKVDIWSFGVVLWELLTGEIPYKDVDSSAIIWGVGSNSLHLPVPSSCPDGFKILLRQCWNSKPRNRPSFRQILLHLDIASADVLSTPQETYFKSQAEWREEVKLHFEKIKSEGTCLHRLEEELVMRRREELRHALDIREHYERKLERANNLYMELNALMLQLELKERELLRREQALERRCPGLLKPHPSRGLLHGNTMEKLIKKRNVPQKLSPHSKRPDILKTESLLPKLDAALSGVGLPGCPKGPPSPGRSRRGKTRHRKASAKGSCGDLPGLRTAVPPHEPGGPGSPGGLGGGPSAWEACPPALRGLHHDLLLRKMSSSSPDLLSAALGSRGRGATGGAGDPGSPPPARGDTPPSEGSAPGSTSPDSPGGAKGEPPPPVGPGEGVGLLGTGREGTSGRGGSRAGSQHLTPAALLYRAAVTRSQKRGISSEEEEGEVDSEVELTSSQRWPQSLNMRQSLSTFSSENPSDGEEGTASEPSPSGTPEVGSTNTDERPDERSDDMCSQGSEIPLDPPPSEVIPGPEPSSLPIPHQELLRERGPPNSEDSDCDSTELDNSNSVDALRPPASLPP

SMILES: CC(C)n1c2ccc(Oc3ncccn3)cc2c2c3c(c4c(c21)CCc1nn(C)cc1-4)C(=O)NC3
- IC50: 1 nM
